Source: US9567318B2, “Substituted pyrimidine compounds and uses thereof” (Memorial Sloan-Kettering Cancer Center, priority 2009, dated 2017)

Assays:
Type in all cases: cell-based, human
[1] = test system: MDA-MB-468, SKBr3, LNCaP, MOLM-13, Kasumi-1, OCI-Ly7 and HuH7 cells; experiment: Growth inhibition in a panel of cancer cells; settings: growth over 72 h
Procedure: Tested were MDA-MB-468 triple-negative breast cancer cells, SKBr3 HER2+breast cancer cells, LNCaP mAR+prostate cancer cells, MOLM-13 and Kasumi-1 acute myeloid leukemia cells, OCI-Ly7 diffuse large B-cell lymphoma cells and HuH7 hepatocellular carcinoma cells. […] In cancer cells, half growth inhibitory concentrations ([…]) recorded for YK5 were in high agreement with its potency to degrade Hsp90 onco-clients.
Growth Inhibition Assay. Antiproliferative effects of inhibitors were evaluated using the dye Alamar blue. This reagent offers a rapid objective measure of cell viability in cell culture, and it uses the indicator dye resazurin to measure the metabolic capacity of cells, an indicator of cell viability. Briefly, cells were plated on Costar 96-well plates. For attached cells (such as SKBr3, MDA-MB-468, LNCaP, MRCS), 8,000 cells/well were used. For suspension cells (such as MOLM-13, Kasumi-1, OCI-Ly7, PBL), 20,000 cells/well were plated. Cells were allowed to incubate for 24 h at 37° C. before drug treatment. Drugs were added in triplicates at the indicated concentrations, and the plate was incubated for 72 h. Alamar Blue (440 μM) was added, and the plate read 6 h later using the Analyst GT (Fluorescence intensity mode, excitation 530 nm, emission 580 nm, with 560=dichroic mirror). Results were analyzed using the Softmax Pro software. The percentage cell growth inhibition was calculated by comparing fluorescence readings obtained from treated versus control cells, accounting for initial cell population (time zero).

[2] = test system: HER2, Raf-1, Akt, Hsp70 in SKBr3 cells; experiment: Western blotting of Hsp90 onco-client proteins and Hsp70 in SKBr3 cells; settings: SKBr3 cells, 24 h
Procedure: FIG. 3. Testing strategy for the discovery of YK5. a, b) SKBr3 cells were treated for 24 h with the indicated concentrations of inhibitors and cells were lysed for western blot (WB) analysis. β-actin was used as loading control. The data are consistent with those obtained from multiple repeat experiments (n≧3). c) The ability of the indicated inhibitors to compete with GM-Cy3B for Hsp90 binding in SKBr3 cell extracts was examined by fluorescence polarization. Values recorded in wells with added inhibitor were normalized to values read in control wells and plotted against the concentration of tested inhibitor. Drugs were assayed in triplicate. All compounds were used as DMSO stocks. Points, mean; bars, s.d. d) Growth inhibition: SKBr3 cells were incubated in triplicate with increasing concentrations of compound and growth over 72 h was assessed. Y-axis values below 0% represent cell death of the starting population. HER2 degradation was analyzed as in panel a), and gels were quantified by densitometry. Recorded values were normalized to control (vehicle only treated cells) and data graphed against YK5 concentration. Error bars represent the s.d. of the mean (n=3).
FIG. 8. […] Points, mean; bars, s.d. Yaxis values below 0% represent cell death of the starting population. c) Streptavidin beads (50 μl) were incubated with the indicated concentrations of YK55, YK56 or D-biotin to immobilize the corresponding compounds on beads. Beads (50 μl) were probed with SKBr3 cell extracts (500 μg), and the precipitated Hsp70 analyzed by western blot and quantified by […]. Results from three independent experiments were graphed to determine the relative binding affinity of YKs. Points, mean; bars, s.d. d) Structure of representative YKs. YK55 and YK56 are the biotinylated derivatives of YK54 and YK57, respectively.
FIG. 9. […] Cells were treated for 24 h with the indicated concentrations of YK149 and YK5. Cells were lysed and proteins analyzed by western blotting. b) Examples of the compounds of the present subject matter inhibit the activity of the oncogenic STAT3 in the triple-negative breast cancer cells MDA-MB-468. Cells were treated for the indicated times with compounds or vehicle and proteins analyzed by western blot. (c) Examples of the compounds of the present subject matter dose-dependently induce apoptosis in the acute myeloid leukemia cells MOLM13. Cells were treated for 24 h with the indicated concentration of compounds and the increase in caspase3,7 activity was measured and compared to only vehicle (DMSO) treated cells. Caspase-3,7 activity was a measure of compound potency in cleaving the caspase substrate Z-DEVD-R110 and releasing rhodamine. The percentage increase in apoptotic cells was calculated by comparing the fluorescence readings obtained from compounds with those obtained from vehicle (DMSO)-treated cells.
Western Blotting. Cells were grown to 60-70% confluence and treated with inhibitor or DMSO vehicle for the indicated times. Protein lysates were prepared in 50 mM Tris pH 7.4, 150 mM NaCl and 1% NP-40 lysis buffer. Protein concentrations were measured using the BCA kit (Pierce) according to the manufacturer's instructions. […]

[3] = test system: Kasumi-1 cells; experiment: Apoptosis, acridine orange/ethidium bromide, Kasumi-1; settings: 10 μM, 24 h
Procedure: FIG. 13. YK5 has a higher apoptotic effect than Hsp90 inhibitors in select tumors. (a-d) Cells were treated with the indicated concentrations of inhibitors for the times presented. (a,b) Apoptotic cells were quantified by dual acridine orange/ethidium bromide staining as described in Methods. (c,d) Molecular markers of apoptosis (PARP cleavage) were analyzed in cells treated for 24 h with indicated concentrations of inhibitors (c) or for the indicated times with the indicated concentration of inhibitors (d) by western blotting. (e) MDAMB-468 cells were treated with vehicle, TNFα (20 ng/ml), YK5 (1 μM), pretreated with YK5 for 2 h before TNFα or co-treated, and cells were lysed for western blot analysis (left), or cell death was quantified by analyzing the hypodiploid population upon propidium iodine staining (right). […]
To determine whether cell death by YK5 was attributable to apoptosis, cells were treated with YK5 and effects on morphology, as well as on several effectors and mediators of apoptosis were analyzed (FIG. 13). To quantify the number of cells undergoing apoptosis, cells were stained with acridine orange/ethidium bromide (AO/EB) and analyzed under a fluorescence microscope for the percentage of viable, apoptotic (early and late) and necrotic cells. […]
Apoptosis-Acridine Orange/Ethidium Bromide. […] Percentage of apoptotic cells was determined from 200-300 cells counted in each group.

C#CCCCn1c(Cc2cc(OC)c(OC)c(OC)c2Cl)nc2c(N)nc(F)nc21 [PU24FCl, reference compound]
growth of all tested cancer cells [1]: inhibited the growth of all tested cancer cells | feed-back induction of Hsp70 (heat shock response) [2]: potently activated a heat shock response | cells undergoing apoptosis [3]: 9%
